From patent publication US20170112775A1, “SITU SELF-ASSEMBLING PRO-NANOPARTICLE COMPOSITIONS AND METHODS OF PREPARATION AND USE THEREOF” (University of North Texas Health Science Center, priority 2015, published 2017)
Where a name gives a salt, the structure may show the parent alone. Read-outs that look alike come from different tables or passages of the source. Each block holds one molecule with its values, some of them ahead of it.

Experiments:
[1] = cited from earlier work
[2] = test system: DU145 sensitive prostate cancer cell line; assay: MTT cytotoxicity, DU145 sensitive; assay type: cell-based; conditions: Homo sapiens, 72 hr
Description: (§1) The cytotoxicity of DTX MT NPs was tested in PC3 and DU145 sensitive and resistant cell using MTT [3-(4,5-dimethylthiazol-2-yl)-2,5-diphenyltetrazolium bromide] assay. Cells were seeded into 96-well plates with a density of 7,000 cells/well and incubated at 37° C. for 24 hr under 5% CO2. Following that, cells were treated with a drug equivalent concentration ranging from 0.5-10,000 nM for DTX, DTX MT NPs, and blank NPs. Due to low water solubility, DTX was dissolved with DMSO. After 72 hr of incubation, the medium was removed from each well and replaced with 90 μL of DMEM medium without phenol red and 10 μL of MTT (5 mg/mL in PBS). The plates were incubated at 37° C. with 5% CO2 for 4 hr. […] The absorbance was measured at a test wavelength of 570 nm and a reference wavelength of 650 nm in a microplate reader (Synergy H1 hybrid Multi-Mode Microplate Reader)
(§2) The cytotoxicity of CUR MT NPs was tested in DU145 and PC-3 human prostate cancer cell lines using MTT [3-(4,5-dimethylthiazol-2-yl)-2,5-diphenyltetrazolium bromide] assay. […] After 72 hr of incubation, the medium was removed from each well and replaced with 90 μL of DMEM medium without phenol read and MTT (10 μL of 5 mg/mL in PBS). […] The absorbance was measured at a test wavelength of 570 nm and a reference wavelength of 650 nm in a microplate reader (Beckman Coulter, Inc.).

[3] = test system: PC3 resistant prostate cancer cell line; assay: MTT cytotoxicity, PC3 resistant; assay type: cell-based; conditions: Homo sapiens, 72 hr
Description: as §1, §2

[4] = test system: PC3 sensitive prostate cancer cell line; assay: MTT cytotoxicity, PC3 sensitive; assay type: cell-based; conditions: Homo sapiens, 72 hr
Description: as §1, §2

[5] = test system: DU145 resistant prostate cancer cell line; assay: MTT cytotoxicity, DU145 resistant; assay type: cell-based, human; conditions: for IC50: Homo sapiens, 72 hr, MTT
Description: The cytotoxicity of DTX MT NPs was tested in PC3 and DU145 sensitive and resistant cell using MTT [3-(4,5-dimethylthiazol-2-yl)-2,5-diphenyltetrazolium bromide] assay. Cells were seeded into 96-well plates with a density of 7,000 cells/well and incubated at 37° C. for 24 hr under 5% CO2. Following that, cells were treated with a drug equivalent concentration ranging from 0.5-10,000 nM for DTX, DTX MT NPs, and blank NPs. Due to low water solubility, DTX was dissolved with DMSO. After 72 hr of incubation, the medium was removed from each well and replaced with 90 μL of DMEM medium without phenol red and 10 μL of MTT (5 mg/mL in PBS). The plates were incubated at 37° C. with 5% CO2 for 4 hr. Formazan produced by mitochondria enzymes of living cells was dissolved in 150 μL of isopropanol containing 0.04 N HCl for 5 min. The absorbance was measured at a test wavelength of 570 nm and a reference wavelength of 650 nm in a microplate reader (Synergy H1 hybrid Multi-Mode Microplate Reader)
The cytotoxicity of CUR MT NPs was tested in DU145 and PC-3 human prostate cancer cell lines using MTT [3-(4,5-dimethylthiazol-2-yl)-2,5-diphenyltetrazolium bromide] assay. Cells were seeded into 96-well plates at 7,000 cells/well and incubated 37° C. for 24 hr under 5% CO2. After overnight incubation, cells were treated with drug concentration ranging from 0-27 μM for CUR, CUR MT NPs, and blank NPs. Due to low water solubility, CUR was dissolved with DMSO. After 72 hr of incubation, the medium was removed from each well and replaced with 90 μL of DMEM medium without phenol read and MTT (10 μL of 5 mg/mL in PBS). After incubating for 4 hr at 37° C. with 5% CO2, 0.04 N HCl/isopropanol was added to each well and incubated for 5 min to dissolve formazan crystals formed by viable cells. The absorbance was measured at a test wavelength of 570 nm and a reference wavelength of 650 nm in a microplate reader (Beckman Coulter, Inc.).

[6] = Solubility screening in oils and surfactants; assay type: physicochemical
Description: These studies were performed to test the solubility of RTV in oils and surfactants. Briefly, oils and surfactants were accurately weighed into glass vials. Certain amounts of […] were added into the glass vials. The vials were stirred on the hot plate maintained at 65° C. for 3 min. The solubilization was monitored by eyes and the drug solubility (w/w) was estimated.
These studies were performed to test the solubility in oils and surfactants. The solubility of DTX was determined in oils (oleic acid, Migloyl 812, Kollisolv® MCT70, Kolliwax® GMSI, Imwitor® 960, and Labrafac) and surfactants (TPGS, Poloxamer 188, Tween 20, and Tween 80). Oils and surfactants were accurately weighed into glass vials. Excess amounts of DTX were added into glass vials containing vehicles. The vials were stirred on the hot plate maintained at 65° C. for 3 min. The drug solubility (w/w) was calculated.
These studies were performed to test the solubility in oils and surfactants. The solubility of CUR was determined in oils (Migloyl 812 N, Migloyl 829, Imwitor 491, Kollisolv MCT70, labrafac, Imwitor 900K, Imwitor 960 and Campriltol 888) and surfactants (Tween 20, Tween 80, Labrasol, Poloxamer 188, TPGS and Gelucire 44/14). Oils and surfactants were accurately weighed into glass vials. Excess amounts of CUR were added into glass vials containing vehicles. The vials were stirred on the hot plate maintained at 65° C. for 3 min. The drug solubility (w/w) was calculated.

[7] = test system: cancer cells; conditions: cited from earlier work
[8] = PK study after subcutaneous injection; assay type: in vivo, Sprague Dawley rats; conditions: male, Sprague Dawley, rat, plasma, sc, after 6 days, one subcutaneous injection of LPV/RTV ISNPs
Description: Animal studies were performed in compliance with guidelines set by the University of North Texas Health Science Center Institutional Animal Care and Use Committees. Rats were housed in groups of 2 under a 12-h light/dark cycle with free access to food and water for 1 week before use. Sprague Dawley rats (males, 276-300 g, n=4) were purchased from Charles River Laboratories (Wilmington, Mass.). Pharmacokinetic studies were conducted to evaluate the pharmacokinetic profiles of LPV and RTV from LPV/RTV ISNPs. Rats were treated with 100 ul of LPV/RTV ISNPs to provide 100 mg/kg of LPV by subcutaneous injection. After the injection, the inventor collected the blood at 0, 1, 2, 3, 5, 6, 24 hours and 2, 3, 4, 5, 6 days. The blood was immediately centrifuged at 3400 rpm for 5 min at 4° C., and 100 ul of plasma samples were transferred to a new tube and stored at −20° C. until further analysis within 3 weeks. LPV and RTV concentrations in the plasma were determined by liquid chromatography-mass spectrometry (LC-MS, an Agilent G6460 Triple Quad LC-MS system) using a previously reported method.

SMILES: COC(=O)N[C@H](C(=O)N[C@@H](Cc1ccccc1)[C@@H](O)CN(Cc1ccc(-c2ccccn2)cc1)NC(=O)[C@@H](NC(=O)OC)C(C)(C)C)C(C)(C)C [ATV, atazanavir]
Bioavailability ([1]; without food): about 20%

SMILES: COc1cc(/C=C/C(=O)CC(=O)/C=C/c2ccc(O)c(OC)c2)ccc1O [Curcumin]
IC50 ([2]; DU-145 sensitive): 7.2 ± 0.4 µM | IC50 ([3]; PC-3 resistance): 7.7 ± 0.1 µM | IC50 ([4]; PC-3 sensitive): 7.9 ± 0.3 µM | IC50 ([5]; DU-145 resistance): 10 ± 0.5 µM | IC50 higher in resistant DU145 than in sensitive DU145 ([5]; resistant vs sensitive DU145): 1.4 fold | Solubility (w/w) ([6]; in Campriltol 888, 65° C.): 0.0160 w/w | Solubility (w/w) ([6]; in Gelucire 44/14, 65° C.): 0.153 w/w | Solubility (w/w) ([6]; in Imwitor 491, 65° C.): 0.0261 w/w | Solubility (w/w) ([6]; in Imwitor 900K, 65° C.): 0.0512 w/w | Solubility (w/w) ([6]; in Imwitor 960, 65° C.): 0.0488 w/w | Solubility (w/w) ([6]; in Kollisolv MCT70, 65° C.): 0.0179 w/w | Solubility (w/w) ([6]; in Labrafac, 65° C.): 0.0120 w/w | Solubility (w/w) ([6]; in Labrasol, 65° C.): 0.173 w/w | Solubility (w/w) ([6]; in Migloyl 812 N, 65° C.): 0.0153 w/w | Solubility (w/w) ([6]; in Migloyl 829, 65° C.): 0.0210 w/w | Solubility (w/w) ([6]; in Poloxamer 188, 65° C.): 0.153 w/w | Solubility (w/w) ([6]; in TPGS, 65° C.): 0.164 w/w | Solubility (w/w) ([6]; in Tween 20, 65° C.): 0.166 w/w | Solubility (w/w) ([6]; in Tween 80, 65° C.): 0.141 w/w | Concentration with anticancer effects [7]: 5 to 30 µM

SMILES: Nc1nc(=O)n([C@@H]2CS[C@H](CO)O2)cc1F [FTC, emtricitabine]
Bioavailability ([1]; oral): over 98%

SMILES: CN(Cc1cnc2nc(N)nc(N)c2n1)c1ccc(C(=O)N[C@@H](CCC(=O)O)C(=O)O)cc1 [MTX, methotrexate]
Bioavailability ([1]; oral): 30%

SMILES: CC(C)OC(=O)OCOP(=O)(CO[C@H](C)Cn1cnc2c(N)ncnc21)OCOC(=O)OC(C)C [TDF, tenofovir disoproxil fumarate]
Bioavailability ([1]; oral): 25%

Continued, in another order:

Solubility (w/w) ([6]; in Imwitor 960K, 65° C.): 0.053 w/w | Solubility (w/w) ([6]; in Kollisolv MCT70, 65° C.): 0.038 w/w | Solubility (w/w) ([6]; in Kolliwax GMS I, 65° C.): 0.025 w/w | Solubility (w/w) ([6]; in Labrafac, 65° C.): 0.022 w/w | Solubility (w/w) ([6]; in Migloyl 812, 65° C.): 0.079 w/w | Solubility (w/w) ([6]; in Oleic acid, 65° C.): 0.066 w/w | Solubility (w/w) ([6]; in Poloxamer 188, 65° C.): 0.019 w/w | Solubility (w/w) ([6]; in TPGS, 65° C.): 0.008 w/w | Solubility (w/w) ([6]; in Tween 20, 65° C.): 0.052 w/w | Solubility (w/w) ([6]; in Tween 80, 65° C.): 0.082 w/w
SMILES: CC(=O)O[C@@]12CO[C@@H]1C[C@H](O)[C@@]1(C)C(=O)[C@H](O)C3=C(C)[C@@H](OC(=O)[C@H](O)[C@@H](NC(=O)OC(C)(C)C)c4ccccc4)C[C@@](O)([C@@H](OC(=O)c4ccccc4)[C@H]21)C3(C)C [docetaxel]
IC50 ([2]; DU-145, DU145 sensitive): 0.0068 ± 0.0005 µM | IC50 ([3]; PC3 resistance): 0.0753 ± 0.0027 µM | IC50 ([4]; PC3 sensitive): 0.007 ± 0.0004 µM | IC50 ([5]; DU-145, DU145 resistance): 0.87 ± 0.0854 µM

concentration at 6 days ([8]; 100 mg/kg of LPV, read-out: LPV Ctrough): > 160 ng/mL | Estimated solubility ([6]; in Brij 78, 65° C.): 0.4725 mg/mg | Estimated solubility ([6]; in Glyceryl behenate, 65° C.): 0.0744 mg/mg | Estimated solubility ([6]; in Kollisolv MCT70, 65° C.): 0.0779 mg/mg | Estimated solubility ([6]; in Kolliwax GMS I, 65° C.): 0.5846 mg/mg | Estimated solubility ([6]; in Miglyo812, 65° C.): 0.0703 mg/mg | Estimated solubility ([6]; in Oleic acid, 65° C.): 1.19 mg/mg | Estimated solubility ([6]; in TPGS, 65° C.): 0.6012 mg/mg
SMILES: Cc1cccc(C)c1OCC(=O)N[C@@H](Cc1ccccc1)[C@@H](O)C[C@H](Cc1ccccc1)NC(=O)[C@H](C(C)C)N1CCCNC1=O [lopinavir]
Estimated solubility ([6]; in Killiphor P 188/Poloxamer F68, 65° C.): 0.3431 mg/mg

concentration at 6 days ([8]; read-out: RTV Ctrough): ~50 ng/mL
SMILES: CC(C)c1nc(CN(C)C(=O)N[C@H](C(=O)N[C@@H](Cc2ccccc2)C[C@H](O)[C@H](Cc2ccccc2)NC(=O)OCc2cncs2)C(C)C)cs1 [ritonavir]
